Laboratory results published in publication PMC9795544, “Identifying Novel Inhibitors for Hepatic Organic Anion Transporting Polypeptides by Machine Learning-Based Virtual Screening” (Journal of Chemical Information and Modeling, 2022).
Like-named read-outs stand apart in the source and are kept apart here.

Assays:
Format in all cases: cell-based
[1] = molecular target: T1, OATP1B3 (Homo sapiens, UniProt Q9NPD5); experiment: Pyranine transport inhibition in A431 cells overexpressing OATP1B3; conditions: for IC50: read-out: IC50 (μM) OATP1B3
T1 construct: expressed in transfected cells; host or cells: A431 cells
T1 sequence (Q9NPD5 1-702): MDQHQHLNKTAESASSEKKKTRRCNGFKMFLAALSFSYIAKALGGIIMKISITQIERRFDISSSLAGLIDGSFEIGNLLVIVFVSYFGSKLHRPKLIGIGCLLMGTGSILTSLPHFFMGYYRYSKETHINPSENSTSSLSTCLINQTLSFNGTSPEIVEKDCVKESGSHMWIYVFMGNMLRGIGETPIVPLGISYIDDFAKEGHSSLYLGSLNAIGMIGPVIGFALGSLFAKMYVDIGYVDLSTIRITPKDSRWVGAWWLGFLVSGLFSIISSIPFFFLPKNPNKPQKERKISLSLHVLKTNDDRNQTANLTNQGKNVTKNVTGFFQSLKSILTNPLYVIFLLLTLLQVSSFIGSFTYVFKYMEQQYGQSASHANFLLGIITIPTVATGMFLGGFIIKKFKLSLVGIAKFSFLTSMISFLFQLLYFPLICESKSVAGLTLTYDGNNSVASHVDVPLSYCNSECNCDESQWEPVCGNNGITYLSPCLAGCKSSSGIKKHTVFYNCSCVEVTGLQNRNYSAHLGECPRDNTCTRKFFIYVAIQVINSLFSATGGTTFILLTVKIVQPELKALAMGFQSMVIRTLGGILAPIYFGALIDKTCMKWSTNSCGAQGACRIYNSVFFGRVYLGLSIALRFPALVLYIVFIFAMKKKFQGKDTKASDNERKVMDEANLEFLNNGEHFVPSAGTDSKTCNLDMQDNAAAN
Protocol: (§1) A431 cells overexpressing OATP1B1, OATP1B3, or OATP2B1 or their mock transfected controls were generated previously[30] and maintained in Dulbecco’s modified Eagle medium (DMEM, Gibco, Thermofisher Scientific, Waltham, MA, US) supplemented with 10% fetal bovine serum, 2 mM L-glutamine, 100 units/mL penicillin, and 100 μg/mL streptomycin. Expression and function of OATPs in the cell lines were checked regularly.
(§2) Interaction with OATP1B1, OATP1B3, or OATP2B1 was tested in an indirect transport assay using pyranine (8-hydroxypyrene-1,3,6-trisulfonic acid trisodium salt, H1529, Sigma, Merck, Budapest, Hungary) as the test substrate[31],[32] A431 cells overexpressing OATP1B1, OATP1B3, or OATP2B1 or their mock transfected controls were seeded on 96-well plates in a density of 8 × 10^4 cells per well in 200 μL of cell culture medium 1 day prior to the transport measurements. […] The transport reaction was started by the addition of 50 μL of uptake buffer containing pyranine in a final concentration of 10 μM (OATP1B1) or 20 μM (OATP1B3 and OATP2B1), and the cells were further incubated at 37 °C for 15 min (OATP1B1 and OATP2B1) or 30 min (OATP1B3). The reaction was stopped by removing the supernatant. After repeated washing with ice-cold PBS, fluorescence was determined in an Enspire plate reader (PerkinElmer, Waltham, MA) with excitation/emission wavelengths of 460/510 nm. OATP-dependent transport was calculated by extracting fluorescence measured in mock transfected cells and normalized to the fluorescence signal obtained in the absence of the tested compounds (100%). Experiments were repeated in at least three biological replicates.

[2] = molecular target: T2, OATP2B1 (Homo sapiens, UniProt O94956); experiment: Pyranine transport inhibition in A431 cells overexpressing OATP2B1
T2 construct: expressed in transfected cells; host or cells: A431 cells
T2 sequence (O94956 1-709): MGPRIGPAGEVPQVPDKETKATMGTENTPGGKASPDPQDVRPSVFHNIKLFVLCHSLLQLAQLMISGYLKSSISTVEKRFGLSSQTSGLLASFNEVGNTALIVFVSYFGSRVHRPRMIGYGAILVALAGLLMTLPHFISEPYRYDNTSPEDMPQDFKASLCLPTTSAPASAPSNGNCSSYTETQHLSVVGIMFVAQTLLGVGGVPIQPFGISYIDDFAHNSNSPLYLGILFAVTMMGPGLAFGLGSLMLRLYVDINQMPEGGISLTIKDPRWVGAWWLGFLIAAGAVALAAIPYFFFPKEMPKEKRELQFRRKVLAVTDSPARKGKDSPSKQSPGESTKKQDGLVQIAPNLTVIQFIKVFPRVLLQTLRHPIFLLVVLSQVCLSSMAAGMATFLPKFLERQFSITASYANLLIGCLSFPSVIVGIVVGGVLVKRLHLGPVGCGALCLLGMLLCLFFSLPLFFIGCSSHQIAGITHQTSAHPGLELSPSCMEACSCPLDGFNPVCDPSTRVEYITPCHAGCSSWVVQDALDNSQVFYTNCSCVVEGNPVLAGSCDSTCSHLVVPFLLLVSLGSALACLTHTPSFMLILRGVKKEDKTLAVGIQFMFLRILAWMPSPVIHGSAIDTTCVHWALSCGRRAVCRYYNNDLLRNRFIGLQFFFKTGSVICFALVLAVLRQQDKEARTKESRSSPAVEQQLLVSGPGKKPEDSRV
Protocol: as §1, §2

[3] = molecular target: T3, OATP1B1 (Homo sapiens, UniProt Q9Y6L6); experiment: Pyranine transport inhibition in A431 cells overexpressing OATP1B1
T3 construct: expressed in transfected cells; host or cells: A431 cells
T3 sequence (Q9Y6L6 1-691): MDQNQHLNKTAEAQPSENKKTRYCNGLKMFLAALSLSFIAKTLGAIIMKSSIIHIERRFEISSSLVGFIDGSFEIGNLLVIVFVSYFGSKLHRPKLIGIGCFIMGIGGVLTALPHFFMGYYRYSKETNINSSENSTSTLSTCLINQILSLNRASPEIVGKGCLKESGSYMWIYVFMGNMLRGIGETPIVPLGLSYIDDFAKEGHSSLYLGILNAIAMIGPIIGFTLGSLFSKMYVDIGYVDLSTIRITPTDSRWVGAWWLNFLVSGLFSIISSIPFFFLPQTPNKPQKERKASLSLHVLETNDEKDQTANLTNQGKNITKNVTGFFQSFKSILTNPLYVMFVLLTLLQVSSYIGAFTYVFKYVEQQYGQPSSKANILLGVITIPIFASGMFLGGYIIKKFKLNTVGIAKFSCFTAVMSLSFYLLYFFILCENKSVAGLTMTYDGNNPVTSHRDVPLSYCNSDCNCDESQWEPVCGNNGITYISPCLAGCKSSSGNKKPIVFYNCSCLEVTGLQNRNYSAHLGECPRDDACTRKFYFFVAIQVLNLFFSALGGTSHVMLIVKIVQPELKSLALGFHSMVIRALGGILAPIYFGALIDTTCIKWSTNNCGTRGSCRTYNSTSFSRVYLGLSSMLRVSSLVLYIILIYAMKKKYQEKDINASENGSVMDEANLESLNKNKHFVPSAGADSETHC
Protocol: as §1, §2

[4] = initial three-point screen (1, 10, 100 μM), category by concentration needed for 50% inhibition, pyranine 20 μM, 30 min, pH 5.5
[5] = IC50 (μM) OATP2B1, initial three-point screen (1, 10, 100 μM), category by concentration needed for 50% inhibition, pyranine 20 μM, 15 min, pH 5.5
[6] = initial three-point screen (1, 10, 100 μM), category by concentration needed for 50% inhibition, pyranine 20 μM, 15 min, pH 5.5, read-out: IC50 (μM) OATP2B1
[7] = initial three-point screen (1, 10, 100 μM), category by concentration needed for 50% inhibition, pyranine 10 μM, 15 min, pH 5.5, read-out: IC50 (μM) OATP1B1
[8] = initial three-point screen (1, 10, 100 μM), category by concentration needed for 50% inhibition, pyranine 10 μM, 15 min, pH 5.5
[9] = full dose-response curve, eight concentrations, Hill1 fit
[10] = full dose-response curve, eight concentrations, Hill1 fit, read-out: IC50 (μM) OATP2B1
[11] = full dose-response curve, eight concentrations, Hill1 fit, read-out: IC50 (μM) OATP1B1

| SMILES | IC50 [1, 4] [µM] | IC50 [2, 6] [µM] | IC50 [3, 7] [µM] | IC50 (μM) OATP1B3 [1, 4] | further results |
| --- | --- | --- | --- | --- | --- |
| O=C(NCc1ccccn1)c1ccc2c(c1)S(=O)(=O)c1ccccc1C2=O [B5, O=C(NCc1ccccn1)c2ccc3C(=O)c4ccccc4S(=O)(=O)c3c2] | – | – | – | Activated | IC50 [2, 5]: 1 to 10 µM; IC50 [3]: > 10 µM |
| N#Cc1c(NC(=O)COC(=O)CN2C(=O)NC3(CCc4ccccc43)C2=O)sc2c1CCCCC2 (stereo not drawn) [A2, O=C(COC(=O)CN1C(=O)NC2(CCc3ccccc23)C1=O)Nc4sc5CCCCCc5c4C#N] | 1 to 10 | 1 to 10 | 1 to 10 | – | – |
| COc1cc2c(cc1NC(=O)CN1C(=O)NC(Cc3c[nH]c4ccccc34)C1=O)oc1ccccc12 (stereo not drawn) [G5, COc1cc2c(oc3ccccc23)cc1NC(=O)CN4C(=O)NC(Cc5c[nH]c6ccccc56)C4=O] | 1 to 10 | 1 to 10 | > 10 | – | – |
| COc1ccc(C2(c3ccc(OC)cc3)NC(=O)N(CC(=O)c3ccc4c(c3)OCO4)C2=O)cc1 [E2, COc1ccc(cc1)C2(NC(=O)N(CC(=O)c3ccc4OCOc4c3)C2=O)c5ccc(OC)cc5] | 1 to 10 | 1 to 10 | > 10 | – | – |
| CCC(C)c1ccc(-n2c(SCC(=O)N3c4ccccc4CC3C)nc3ccccc3c2=O)cc1 (stereo not drawn) [G4, CCC(C)c1ccc(cc1)N2C(=Nc3ccccc3C2=O)SCC(=O)N4C(C)Cc5ccccc45] | – | 1 to 10 | – | no effect | IC50 (μM) OATP1B3 [1, 9]: no effect; IC50 [2, 10]: ~6 µM; IC50 (μM) OATP1B1 [3, 9]: no effect; IC50 (μM) OATP1B1 [3, 8]: no effect |
| COC(=O)c1c(NC(=O)CN2C(=O)NC3(CCc4ccccc4C3)C2=O)sc2c1CCCCC2 (stereo not drawn) [H5, COC(=O)c1c2CCCCCc2sc1NC(=O)CN3C(=O)NC4(CCc5ccccc5C4)C3=O] | – | < 1 | – | – | IC50 [1, 9]: 6.95 µM; IC50 at 30 min ([1]; human, pH 5.5, probe pyranine 20 μM, initial three-point screen (1, 10, 100 μM), category by concentration needed for 50% inhibition, pyranine 20 μM, 30 min, pH 5.5): > 10 µM; fold lower affinity on OATP1B3 than on OATP2B1 ([1]; ratio of IC50 OATP1B3 / OATP2B1): 18 fold; IC50 [2, 10]: 0.39 µM; IC50 [3, 11]: ~25 µM; IC50 at 15 min ([3]; human, pH 5.5, probe pyranine 10 μM, initial three-point screen (1, 10, 100 μM), category by concentration needed for 50% inhibition, pyranine 10 μM, 15 min, pH 5.5, read-out: IC50 (μM) OATP1B1): > 10 µM |
| Fc1ccc(C2CC(c3cccs3)=NN2c2nc(-c3ccccc3)c3cc(Cl)ccc3n2)cc1 (stereo not drawn) [A5, Fc1ccc(cc1)C2CC(=NN2c3nc(c4ccccc4)c5cc(Cl)ccc5n3)c6cccs6] | – | > 10 | – | no effect | IC50 (μM) OATP1B1 [3, 8]: no effect |
| Cc1ccc(OCc2nnc(SCC(=O)N3CCN(C(=O)Nc4ccccc4)CC3)o2)cc1 [F4, Cc1ccc(OCc2oc(SCC(=O)N3CCN(CC3)C(=O)Nc4ccccc4)nn2)cc1] | – | – | – | Activated | IC50 [2, 5]: > 10 µM; IC50 [3]: > 10 µM |

Second part, led by results:

| IC50 [1, 4] [µM] | IC50 [2, 6] [µM] | IC50 [3, 7] [µM] | SMILES | IC50 (μM) OATP1B3 [1, 4] | further results |
| --- | --- | --- | --- | --- | --- |
| > 10 | 1 to 10 | > 10 | O=C(/C=C/c1cn(Cc2ccccc2)nn1)N1CCCC(c2nc3ccccc3s2)C1 (stereo not drawn) [H2, O=C(\C=C\c1cn(Cc2ccccc2)nn1)N3CCCC(C3)c4nc5ccccc5s4] | – | – |
| – | > 10 | > 10 | Cc1cccc2nc(CSc3nc4sc5c(c4c(=O)n3Cc3ccccc3)CCCC5)cn12 [C5, Cc1cccc2nc(CSC3=Nc4sc5CCCCc5c4C(=O)N3Cc6ccccc6)cn12] | no effect | – |
| – | 1 to 10 | – | CC(C)(C)c1ncc(NC(=O)c2ccccc2-c2ncc(-c3ccccc3)o2)cn1 [A7, CC(C)(C)c1ncc(NC(=O)c2ccccc2c3oc(cn3)c4ccccc4)cn1] | Activated | IC50 (μM) OATP1B1 [3, 8]: no effect |
| 1 to 10 | – | 1 to 10 | Cn1c(=O)[nH]c(=O)c2c1nc(N/N=C1/C(=O)Nc3ccccc31)n2CCCc1ccccc1 [E3, CN1C(=O)NC(=O)c2c1nc(N\N=C/3\C(=O)Nc4ccccc34)n2CCCc5ccccc5] | – | IC50 [1, 9]: 1.53 µM; IC50 [2, 10]: 1.32 µM; IC50 [3, 11]: 2.69 µM |
| > 10 | 1 to 10 | 1 to 10 | Cc1occc1-c1nnc(SCC(=O)c2ccc3c(c2)NC(=O)CO3)n1Cc1ccccc1 [A3, Cc1occc1c2nnc(SCC(=O)c3ccc4OCC(=O)Nc4c3)n2Cc5ccccc5] | – | – |
